Where two headings read alike, the source gives them in different places.
Biological target: T1, metabotropic glutamate receptors mG1uR2 (Rattus norvegicus, UniProt P31421)
T1 construct: expressed in transfected cells
Assay: Effect of Test Compounds on cAMP Accumulation (inhibition of Forskolin-stimulated cAMP accumulation in CHO cells stably expressing mGluR2)
Type: cell-based
Procedure: After the medium was replaced with an L-glutamine free medium, they were cultured for 4 hours, and the supernatant liquid was aspirated. After adding 150 μl of PBS(+)-IBMX (10 mM PBS(-), 1 mM MgC12,1 mM CaCl2, 1 mM IBMX), incubation was conducted at 37° C. under the presence of 5% CO2 for 20 minutes. Once again the supernatant liquid was suctioned off, 60 μl of 10^-5 M Forskolin and PBS (+)-IBMX containing the specimens listed in Table 1 between 10^-10 and 10^-4 M were added, incubation was carried out for 15 minutes at 37° C. under the presence of 5% CO2, and a study was carried out for the inhibitory effect of the agonists on the Forskolin stimulation cAMP accumulation quantity [for control, the conditions were set to Forskolin with no addition of the compounds (Tanabe et al., Neuron, 8, 169-179 (1992))]. The reactions were halted by adding 100 μl of ice-cooled ethanol, the entire quantity of the supernatant liquid was collected in a separate plate, then was dried up at normal temperature with an evaporator, and was kept at -20° C. In the dried-up samples, the quantity of cAMP was measured using a cAMP EIA kit (from the Amasham company). The control value was subtracted from each cAMP quantity.

[1] = CHO cells stably expressing mGluR2, 10^-5 M Forskolin, specimens 10^-10 to 10^-4 M, 15 minutes at 37° C., cAMP EIA kit, agonist

T1 sequence (P31421 19-872): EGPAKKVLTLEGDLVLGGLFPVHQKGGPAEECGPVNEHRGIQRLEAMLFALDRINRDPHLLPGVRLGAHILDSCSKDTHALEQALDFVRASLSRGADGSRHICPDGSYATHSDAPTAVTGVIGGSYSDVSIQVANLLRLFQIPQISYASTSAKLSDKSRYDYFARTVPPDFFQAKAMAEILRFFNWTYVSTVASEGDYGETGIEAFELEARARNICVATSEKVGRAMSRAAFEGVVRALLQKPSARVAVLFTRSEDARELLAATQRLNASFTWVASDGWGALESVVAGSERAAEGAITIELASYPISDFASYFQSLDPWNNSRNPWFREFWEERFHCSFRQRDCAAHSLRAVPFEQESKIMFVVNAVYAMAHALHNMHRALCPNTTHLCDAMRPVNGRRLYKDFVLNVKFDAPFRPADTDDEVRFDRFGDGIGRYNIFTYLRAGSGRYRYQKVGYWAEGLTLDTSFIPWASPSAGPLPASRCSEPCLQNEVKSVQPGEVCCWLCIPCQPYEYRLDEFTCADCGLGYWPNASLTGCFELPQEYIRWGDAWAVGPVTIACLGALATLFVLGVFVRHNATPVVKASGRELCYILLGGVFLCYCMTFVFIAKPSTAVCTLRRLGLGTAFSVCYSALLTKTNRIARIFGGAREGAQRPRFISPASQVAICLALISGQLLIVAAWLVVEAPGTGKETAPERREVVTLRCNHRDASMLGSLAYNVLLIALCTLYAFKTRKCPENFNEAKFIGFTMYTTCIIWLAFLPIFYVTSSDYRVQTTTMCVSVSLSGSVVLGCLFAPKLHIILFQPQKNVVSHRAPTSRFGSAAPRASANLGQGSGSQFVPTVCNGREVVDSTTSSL

Row | SMILES | IC50 [1] [nM] | IC50 [nM]
1 | N[C@@]1(C(=O)O)CC[C@@H]2[C@H]1[C@@]2(F)C(=O)O (single isomer, unassigned) [Comp. 2, (-)-(1R*, 2S*, 5R*, 6R*)-2-amino-6-fluorobicyclo[3.1.0]hexane-2,6-dicarboxylic acid] | 16.6 | 
2 | N[C@@]1(C(=O)O)CC[C@@H]2[C@H]1[C@@]2(F)C(=O)O (racemic) [Comp. 1, (1RS, 2SR, 5RS, 6RS)-2-amino-6-fluorobicyclo[3.1.0]hexane-2,6-dicarboxylic acid] | 34.2 | 
3 | N[C@@]1(C(=O)O)CC(=O)[C@@H]2[C@H]1[C@@]2(F)C(=O)O (single isomer, unassigned) [Comp. 4, (+)-(1R*, 2S*, 5S*, 6S*)-2amino-6-fluoro-4-oxobicyclo [3.1.0]hexane-2,6-dicarboxylic acid] | 0.66 | 
4 | N[C@@]1(C(=O)O)CC[C@@H](C(=O)O)C1 [(1s,3R)-ACPD, (1S, 3R)-1-aminocyclopentane-1,3-dicarboxylic acid, reference compound] |  | 1500
5 | N[C@H](C(=O)O)[C@H]1C[C@@H]1C(=O)O [L-CCG-I, (2S, 1'S, 2'S)-2-(carboxycyclopropyl)glycine, reference compound] | 121 | 
6 | N[C@@]1(C(=O)O)CC(=O)[C@@H]2[C@H]1[C@@]2(F)C(=O)O (racemic) [Comp. 3, (1RS, 2SR, 5SR, 6SR)-2-amino-6-fluoro-4-oxobicyclo[3.1.0]hexane-2,6-dicarboxylic acid] | 1.26 | 
7 | N[C@@]1(C(=O)O)C[C@H](O)[C@@H]2[C@H]1[C@@]2(F)C(=O)O (racemic) [Comp. 5, (1RS, 2SR, 4SR, 5SR, 6SR)-2-amino-6-fluoro-4-hydroxybicyclo [3.1.0]hexane-2,6-dicarboxylic acid] | 19.6 | 
8 | N[C@H](C(=O)O)C1[C@@H](C(=O)O)[C@@H]1C(=O)O (stereo partly drawn) [DCG IV, (2S, 1'R, 2'R, 3'R)-2-(2', 3'-dicarboxycycloproyl)glycine, reference compound] | 98.3 | 

Reference: patent US6333428A, “6-fluorobicyclo[3.1.0]hexane derivatives” (Taisho Pharmaceutical Co., Ltd., priority 1998, dated 2001)
